Assay results taken from patent US6727264B1 (Synaptic Pharmaceutical Corporation, priority 2001, dated 2004).

Each molecule was assayed against rat MCH-1 (Rattus norvegicus, UniProt P97639) (assay: Radioligand binding assay at cloned rat MCH1 receptor ([3H] Compound A)). Settings: cloned rat MCH1 receptor, membranes from Peakr293 cells, 0.08 nM [3H] Compound A; read-out: Ki (nM) rMCH1.
Design: host or cells: Peak rapid 293 (Peakr293) cells, transient calcium phosphate transfection, membranes

rat MCH-1, sequence (P97639 whole entry): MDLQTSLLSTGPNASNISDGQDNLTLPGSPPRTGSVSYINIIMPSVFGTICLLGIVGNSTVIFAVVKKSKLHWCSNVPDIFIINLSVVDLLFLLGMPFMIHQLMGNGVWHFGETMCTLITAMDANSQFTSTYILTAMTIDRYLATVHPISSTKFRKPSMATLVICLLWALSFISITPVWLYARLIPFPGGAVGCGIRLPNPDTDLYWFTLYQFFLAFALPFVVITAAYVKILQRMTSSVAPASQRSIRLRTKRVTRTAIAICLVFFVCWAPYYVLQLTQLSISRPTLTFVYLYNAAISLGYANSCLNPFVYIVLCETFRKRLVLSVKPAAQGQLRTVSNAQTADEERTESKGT

Row | Ki | SMILES
1 | 145 nM | CC(C)C(=O)Nc1cccc(C2CCN(C[C@@H](C)COc3ccc(Cl)cc3)CC2)c1 [Example 369]
2 | 163 nM | CC(C)C(=O)Nc1cccc(C2CCN(C[C@@H](C)COc3cccc(Br)c3)CC2)c1 [Example 371]
3 | 358 nM | CC(C)C(=O)Nc1cccc(C2CCN(C[C@@H](C)COc3ccccc3Br)CC2)c1 [Example 372]
4 | 428 nM | CC(C)C(=O)Nc1cccc(C2CCN(C[C@@H](C)COc3cccc(Cl)c3)CC2)c1 [Example 373]
5 | 96.8 nM | CC(C)C(=O)Nc1cccc(C2CCN(CCCC3OCC(C)(C)CO3)CC2)c1 [Example 374]
6 | 186 nM | CC(=O)c1cccc(OCCCCN2CCC(c3cccc(NC(=O)C(C)C)c3)CC2)c1 [Example 375]
7 | 888 nM | COc1cccc(OCCCCN2CCC(c3cccc(NC(=O)C(C)C)c3)CC2)c1 [Example 376]
8 | 712 nM | COc1ccc(OCCCCN2CCC(c3cccc(NC(=O)C(C)C)c3)CC2)cc1 [Example 377]
9 | 308 nM | COc1ccccc1OCCCCN1CCC(c2cccc(NC(=O)C(C)C)c2)CC1 [Example 378]
10 | 204 nM | Cc1ccc(OCCCCN2CCC(c3cccc(NC(=O)C(C)C)c3)CC2)cc1C [Example 379]
11 | 309 nM | CC(C)C(=O)Nc1cccc(C2CCN(CCCCC3OCCO3)CC2)c1 [Example 380]
12 | 235 nM | CC(=O)c1cccc(OCCCCCN2CCC(c3cccc(NC(=O)C(C)C)c3)CC2)c1 [Example 381]
13 | 319 nM | CC(=O)c1cccc(OCCCCCN2CCC(c3cccc(NC(=O)C4CC4)c3)CC2)c1 [Example 382]
14 | 290 nM | CC(=O)c1cccc(OCCCCCCN2CCC(c3cccc(NC(=O)C(C)C)c3)CC2)c1 [Example 383]
15 | 69 nM | CC(=O)c1cccc(OCCCCCCN2CCC(c3cccc(NC(=O)C4CC4)c3)CC2)c1 [Example 384]
16 | 325 nM | CC(C)C(=O)Nc1cccc(C2CCN(CCCC(Oc3ccc(Cl)cc3)c3ccc(Cl)cc3)CC2)c1 (stereo not drawn) [Example 385]
17 | 26.3 nM | CC(C)C(=O)Nc1cccc(C2CCN(CCc3c(-c4ccccc4)n(C)c4ccccc34)CC2)c1 [Example 386]
18 | 19.7 nM | CC(C)C(=O)Nc1cccc(C2CCN(CCc3c(-c4ccccc4)[nH]c4c3ccc3ccccc34)CC2)c1 [Example 387]
19 | 20.7 nM | CC(C)C(=O)Nc1cccc(C2CCN(CCCc3c(-c4ccccc4)[nH]c4c3ccc3ccccc34)CC2)c1 [Example 388]
20 | 2.2 nM | CC(C)C(=O)Nc1cccc(C2CCN(CCCc3c(-c4ccccc4)[nH]c4ccc(OC(F)(F)F)cc34)CC2)c1 [Example 389]
21 | 1 nM | CC(C)C(=O)Nc1cccc(C2CCN(CCCCc3c(-c4ccccc4)[nH]c4ccc(OC(F)(F)F)cc34)CC2)c1 [Example 390]
22 | 21.9 nM | CC(C)C(=O)Nc1cccc(C2CCN(CCCc3c(-c4ccccc4)n(C)c4ccccc34)CC2)c1 [Example 391]
23 | 18.1 nM | CC(C)C(=O)Nc1cccc(C2CCN(CCCCc3c(-c4ccccc4)n(-c4ccccc4)c4ccccc34)CC2)c1 [Example 392]
24 | 9.5 nM | CC(C)C(=O)Nc1cccc(C2CCN(CCCCCc3c(-c4ccccc4)[nH]c4ccc(OC(F)(F)F)cc34)CC2)c1 [Example 393]
25 | 2.4 nM | CC(C)C(=O)Nc1cccc(C2CCN(CCCCCc3c(-c4ccccc4)n(C)c4ccccc34)CC2)c1 [Example 395]
26 | 13.6 nM | CC(C)C(=O)Nc1cccc(C2CCN(CCCCCc3c(-c4ccccc4)[nH]c4c3ccc3ccccc34)CC2)c1 [Example 398]

Same assay, conditions: cloned rat MCH1 receptor; 0.08 nM [3H] Compound A; Peakr293 cell membranes; read-out: Ki (nM) rMCH1

Row | Ki | SMILES
27 | 31.9 nM | Cc1ccc2[nH]c(-c3ccccc3)c(CCN3CCC(c4cccc(NC(=O)C(C)C)c4)CC3)c2c1 [Example 399]
28 | 43.9 nM | COc1cccc2c(CCN3CCC(c4cccc(NC(=O)C(C)C)c4)CC3)c(-c3ccccc3)[nH]c12 [Example 400]
29 | 44.6 nM | Cc1cccc2c(CCN3CCC(c4cccc(NC(=O)C(C)C)c4)CC3)c(-c3ccccc3)[nH]c12 [Example 401]
30 | 11.7 nM | Cc1cccc2c(CCCCN3CCC(c4cccc(NC(=O)C(C)C)c4)CC3)c(-c3ccccc3)[nH]c12 [Example 403]
